Results reported in PubChem BioAssay AID2748 (The Scripps Research Institute Molecular Screening Center, 2010).

Target: Heat shock protein HSP 90-alpha (Homo sapiens) (UniProt P07900)
Test: HSP90 inhibitors, concentration-response – biochemical, luminescence, late-stage follow-up (AID 2748)
Conditions: Hsp90 biochemical assay, luminescence read-out

IC50 [nM]	SMILES
457	COc1ccccc1NC(=O)c1coc(=O)c(Br)c1
1600	Cc1c(-c2nc(-c3ccc(C(F)(F)F)cc3)no2)n(C)oc1=O
< 3	Cc1c(-c2nc(-c3ccc(C(C)(C)C)cc3)no2)n(C)oc1=O
1030	CCc1ccc(OCc2ccc(C(=O)OC)o2)cc1
100	CC(=O)Nc1ccccc1OCC(=O)c1cc(C)n(Cc2cccs2)c1C
878	CCOC(=O)c1csc(NC(=O)c2cc3ccccc3o2)n1
871	Cc1cc(NO)nc(-c2ccc(Br)cc2)n1
1820	COc1cc(C=NNc2ccc(Cl)c(C(=O)O)c2)ccc1OC(=O)c1ccc(F)cc1
308	CCOC(=O)C1=C(c2ccc(OC)cc2)C(=O)c2ccccc2C1=O
